Where a name gives a salt, the structure may show the parent alone.
Assay: Crystalline form of atrasentan hydrochloride found in solvents over time (conversion to Form 2) at 25° C.
Format: physicochemical
Set-up: key: 1, 2 and 3 mean Atrasentan Hydrochloride Crystalline Forms 1, 2 and 3, respectively.; 1, 2 and 3 mean Atrasentan Hydrochloride Crystalline Forms 1, 2 and 3, respectively.; 1, 2 and 3 mean Atrasentan Hydrochloride Crystalline Forms 1, 2 and 3, respectively
Experimental: Examples of representative solvents that are useful for converting a particular crystalline form of atrasentan hydrochloride to Atrasentan Hydrochloride Crystalline Form 2 having substantial crystalline purity at 25° C. are shown in TABLE 2.

SMILES: CCCCN(CCCC)C(=O)CN1C[C@H](c2ccc3c(c2)OCO3)[C@@H](C(=O)O)[C@@H]1c1ccc(OC)cc1 [atrasentan hydrochloride, (2R,3R,4S)-(+)-2-(4-methoxyphenyl)-4-(1,3-benzodioxol-5-yl)-1-(N,N-di(n-butyl)aminocarbonylmethyl)pyrrolidine-3-carboxylic acid]
- crystalline form present (0.1M HCl, week 1): 1
- crystalline form present (0.1M HCl, week 2): 1
- crystalline form present (0.1M HCl, week 4): 1
- crystalline form present (0.1M HCl, week 9): 2
- crystalline form present (0.1M HCl, week 16): 2
- crystalline form present (IPA (isopropyl alcohol), week 1): 1
- crystalline form present (IPA (isopropyl alcohol), week 2): 1
- crystalline form present (IPA (isopropyl alcohol), week 4): 2
- crystalline form present (IPA (isopropyl alcohol), week 9): 2
- crystalline form present (IPA (isopropyl alcohol), week 16): 2
- crystalline form present (PEG 400 (polyethylene glycol), week 1): 1
- crystalline form present (PEG 400 (polyethylene glycol), week 2): 1
- crystalline form present (PEG 400 (polyethylene glycol), week 4): 1
- crystalline form present (PEG 400 (polyethylene glycol), week 9): 1
- crystalline form present (PEG 400 (polyethylene glycol), week 16): 2
- crystalline form present (acetone, week 1): 2
- crystalline form present (acetone, week 2): 2
- crystalline form present (acetone, week 4): 2
- crystalline form present (acetone, week 9): 2
- crystalline form present (acetone, week 16): 2
- crystalline form present (ethanol, week 1): 2
- crystalline form present (ethanol, week 2): 2
- crystalline form present (ethanol, week 4): 2
- crystalline form present (ethanol, week 9): 2
- crystalline form present (ethanol, week 16): 2
- crystalline form present (ethyl acetate, week 1): 1
- crystalline form present (ethyl acetate, week 2): 1
- crystalline form present (ethyl acetate, week 4): 1
- crystalline form present (ethyl acetate, week 9): 2
- crystalline form present (ethyl acetate, week 16): 2
- crystalline form present (nitromethane, week 1): 3
- crystalline form present (nitromethane, week 2): 3
- crystalline form present (nitromethane, week 4): 3
- crystalline form present (nitromethane, week 9): 3
- crystalline form present (nitromethane, week 16): 2

Source: patent US20080132710A1, “ATRASENTAN HYDROCHLORIDE CRYSTALLINE FORM 2” (ABBOTT LABORATORIES, priority 2006, published 2008)
